Source: US8501740B2, “Methods of treatment of opioid tolerance, physical dependence, pain and addiction with inhibitors of certain growth factor receptors” (priority 2007, dated 2013)
Entries after “also recorded” stand apart in the source; their conditions may differ.

What was measured:
[1] = tested on: PDGF receptor; settings: cited from earlier work
[2] = tested on: rat; assay: Tail-flick latency (TFL) test of morphine analgesia and tolerance; format: in vivo; settings: for Analgesic effect of the drug itself: administered alone, without morphine; for Development versus behavioral expression of morphine tolerance (tail flick latency): co-administered with morphine for several days, then morphine alone on the final day; for Effect on analgesic effect of morphine given subsequently: drug in 10% cyclodextrin vehicle for 4 days, morphine alone on day 5; for Reversal of established morphine tolerance: morphine given for varying periods, then drug added
Description: Analgesic effectiveness is typically studied using the tail-flick test, where a hot light is shined on a rat's tail and the time required for the rat to move (“flick”) its tail recorded (TFL, or tail flick latency).
To determine whether GLEEVEC® (imatinib) blocked the development or expression of tolerance, morphine and GLEEVEC® (imatinib) was co-administered for 4 days, and then on day 5 morphine alone was administered.
To determine whether IRESSA® (gefitinib) blocked the development or expression of tolerance, morphine and IRESSA® (gefitinib) was co-administered for 4 days, and then on day 5 morphine alone was administered.
(§1) A drug can inhibit the expression of narcotic tolerance if it is analgesic itself or if previous drug administration alters subsequent narcotic analgesia. To determine whether either of these possibilities were the case, animals were treated animals with either the cyclodextrin-based vehicle used to solubilize GLEEVEC® (imatinib) (10% CDSBE) or GLEEVEC® (imatinib) in vehicle for 4 days, and then on the fifth day were given morphine alone.
as §1, with “altered” for “alters subsequent”, “IRESSA® (gefitinib)” for “GLEEVEC® (imatinib)”, “CAPTISOL® (sulfobutylether-β-cyclodextrin))” for “CDSBE)”
Another possible explanation for apparent inhibition of opioid tolerance would be that GLEEVEC® (imatinib) or IRESSA® (gefitinib) could alter morphine pharmacokinetics, causing a different time course of analgesia with co-administration.
Next it was desirable to determine if GLEEVEC® (imatinib) could reverse morphine tolerance. NMDA antagonists, which are known to inhibit the development of morphine tolerance, can only partially reverse morphine tolerance, and cannot reverse established tolerance. In addition, NMDA antagonists are highly toxic (many are chemically related to PCP), which also severely limits their clinical use. To determine whether GLEEVEC® (imatinib) could reverse established morphine tolerance, morphine was given for varying periods of time, and then GLEEVEC® (imatinib) was added. […] On day 7, morphine alone was given to all groups.

[3] = tested on: rats that have undergone sciatic nerve ligation; assay: Sciatic nerve ligation model of neuropathic pain, Von Frey hair testing; format: in vivo; settings: for Effect upon allodynia / analgesia (Von Frey hairs): sciatic nerve ligation, alone or co-administered as labelled
From the text: (§2) To test the methods of treatment presented herein, we use the sciatic nerve ligation model of Chung et al. (model of neuropathic pain). Chung, J. M., H. K. Kim, and K. Chung, Segmental Spinal Nerve Ligation Model Of Neuropathic Pain, Methods Mol Med, 2004. 99: p. 35-45. Animals undergo this ligation procedure, are allowed to recover, and tested for pain sensitivity using Von Frey hairs and/or pressure testing.
as §2, with “spinal nerve ligation model of neuropathic pain.” for “Spinal Nerve Ligation Model Of Neuropathic Pain,”

[4] = tested on: animals made physically dependent upon morphine; assay: Morphine physical dependence, naloxone-precipitated withdrawal; format: in vivo; settings: morphine pellets, drug systemically twice daily
From the text: Animals were pelleted with continuous release morphine pellets, and treated with GLEEVEC® (imatinib) systemically twice daily. Withdrawal was precipitated by injection of naloxone.

[5] = tested on: PDGFR-beta; assay: PDGFR-beta tyrosine phosphorylation in cell lines (immunoprecipitation, Western blotting with PY-20); format: cell-based
Description: Cells were treated with morphine, gabapentin, morphine and gabapentin, or water for 40 minutes. Cells were then washed, lysed, and immunoprecipitation was performed using a PDGFR-beta antibody. Western blotting was then performed using PY-20 antibody, which detects tyrosine phosphorylation. Blots were then stripped and re-probed with PDGFR-beta antibody to control for the amount of PDGFR-beta loaded in each lane.

[6] = tested on: alcohol dependent animals; settings: cited from earlier work

Structure (SMILES) | Inhibition of receptor tyrosine kinase activity of the PDGF receptor [1] | Analgesic effect of the drug itself [2] | Inhibition of tolerance when co-administered with morphine from the beginning [2] | Development versus behavioral expression of morphine tolerance (tail flick latency) [2] | Effect on analgesic effect of morphine given subsequently [2] | Reversal of established morphine tolerance [2] | Inhibition of morphine tolerance ([2]; spinally administered, initial studies) | Effect upon allodynia / analgesia (Von Frey hairs) [3] | Weight loss in precipitated withdrawal [4] | Withdrawal behaviors in precipitated withdrawal [4] | Block of morphine-induced PDGFR-beta phosphorylation / PDGFR activation ([5]; co-administration with morphine, 40 minutes) | Alcohol intake and self-administration ([6]; alcohol dependent animals) | Anxiogenic effects of alcohol withdrawal ([6]; alcohol dependent rats) | Doses required to block behavioral expression of tolerance, relative to GLEEVEC (imatinib) ([2]; rat, in vivo) | Number of doses to achieve peak effect ([3]; sciatic nerve ligation model) | Increase in PDGFR-beta phosphorylation ([5]; cells treated for 40 minutes) | Time of peak analgesic effect ([2]; time course on 4 consecutive days)
Cc1ccc(NC(=O)c2ccc(CN3CCN(C)CC3)cc2)cc1Nc1nccc(-c2cccnc2)n1 [GLEEVEC® (imatinib), imatinib] | inhibit the receptor tyrosine kinase activity of the PDGF receptor | do not exhibit analgesic effects; also recorded: neither GLEEVEC® (imatinib) nor vehicle was analgesic when administered alone; also recorded: no analgesic effect at any time point | inhibited tolerance | inhibits the behavioral expression, not the development of opioid tolerance; also recorded: blocked the behavioral expression of morphine tolerance; also recorded: inhibited the expression of tolerance alone | do not exhibit analgesic effects, or interfere with the analgesic effects of morphine; also recorded: did not alter the analgesic effect of morphine given subsequently on day 5 | completely reverses and inhibits the behavioral expression of tolerance; also recorded: completely reversed tolerance | inhibited morphine tolerance | neither morphine nor GLEEVEC® (imatinib) alone have analgesic properties; also recorded: had no effect upon allodynia | without affecting weight loss; also recorded: Weight loss was not affected | reduces the behavioral expression of paw shakes and wet dog shakes; also recorded: withdrawal behaviors such as teeth chattering and wet dog shakes were reduced | – | – | – | – | – | – | –
COc1cc2ncnc(Nc3ccc(F)c(Cl)c3)c2cc1OCCCN1CCOCC1 [IRESSA® (gefitinib), gefitinib] | – | do not exhibit analgesic effects; also recorded: neither IRESSA® (gefitinib) nor vehicle was analgesic when administered alone | – | inhibits the development, not the behavioral expression of opioid tolerance; also recorded: inhibited the development of morphine tolerance | do not exhibit analgesic effects, or interfere with the analgesic effects of morphine; also recorded: did not alter the analgesic effect of morphine given on day 5 | – | – | neither morphine nor IRESSA® (gefitinib) alone have analgesic properties; also recorded: had no effect upon allodynia | – | – | – | – | – | – | – | – | –
NCC1(CC(=O)O)CCCCC1 [gabapentin] | – | not analgesic itself | blocks tolerance | blocks the behavioral expression of tolerance | – | reverses established tolerance | – | does not cause complete analgesia | – | – | blocked by co-administration of gabapentin | reduce alcohol intake and self-administration | reversing anxiogenic effects of alcohol withdrawal | 10 to 100 fold higher | takes several doses to achieve its peak effect | – | –
CN1CC[C@]23c4c5ccc(O)c4O[C@H]2[C@@H](O)C=C[C@H]3[C@H]1C5 [morphine] | – | – | – | – | – | – | – | neither morphine nor IRESSA® (gefitinib) alone have analgesic properties; also recorded: neither morphine nor GLEEVEC® (imatinib) alone have analgesic properties; also recorded: had no effect upon allodynia | – | – | – | – | – | – | – | 40% | 30 min
